This passage reports emission maximum results from the Deep4Chem optical property database.

This series is described as follows: solvent given as SMILES.
Where [1] appears, read: in O=P(c1ccccc1)(c1ccccc1)c1ccccc1Oc1ccccc1P(=O)(c1ccccc1)c1ccccc1.

As to `CCCCCCN1C(=O)c2cccc3c(-c4ccc(-c5cc(-c6ccccc6)nn5-c5ccccc5)s4)ccc(c23)C1=O`, the emission maximum (in ClCCl) is 517 nm.

Compound `Cc1ccc(C)cc1` gave an emission maximum (in C1CCCCC1) of 292.06 nm.

In the case of `COc1cccc(-n2c(-c3ccc(F)cc3)nc(C)c2C)c1`, the emission maximum stood at 369 nm (in C1COCCO1); 365.4 nm (in CC#N); 369 nm (in CCCCCC); 370 nm (in CCCCO); 371 nm (in CCO); 367 nm (in CCOC(C)=O). Also, the emission maximum (in CO) is 368 nm, the emission maximum (in ClC(Cl)Cl) was found to be 369 nm, the emission maximum (in ClCCl) amounted to 368 nm and the emission maximum (in c1ccccc1) is given as 365 nm.

For the compound `CC1(C)CC(=O)c2c(F)c(F)cc(F)c2N1`, the emission maximum by setting is: (in CC#N) 459 nm; (in CCO) 499 nm.

Turning to `Cc1c(-c2ccc(N3c4ccccc4C(C)(C)c4ccccc43)cc2)ncnc1-c1ccc(N2c3ccccc3C(C)(C)c3ccccc32)cc1`, the emission maximum is reported as 477 nm (in Cc1ccccc1) and 481 nm under setting [1].

In turn, `c1ccc(B2Nc3cc4c(cc3-c3occc32)NB(c2ccccc2)c2ccoc2-4)cc1` gave an emission maximum (in ClCCl) of 393 nm.

Turning to `CC(C)[Si](C#Cc1c2ccccc2c(C#Cc2c3ccccc3c(C#Cc3c4ccccc4c(C#Cc4c5ccccc5c(C#C[Si](C(C)C)(C(C)C)C(C)C)c5ccccc45)c4ccccc34)c3ccccc23)c2ccccc12)(C(C)C)C(C)C`, the emission maximum (in Cc1ccccc1) is 609 nm.

Turning to `COc1cc(/C=C/c2ncc(-c3ccncc3)o2)cc(OC)c1OC`, the emission maximum (in ClCCl) is given as 463 nm.

On to `C(=C\c1ccc(N(c2ccc(/C=C/c3ccc(N(c4ccccc4)c4ccccc4)cc3)cc2)c2ccc(-c3nc4ccccc4nc3-c3ccc(N(c4ccc(/C=C/c5ccc(N(c6ccccc6)c6ccccc6)cc5)cc4)c4ccc(/C=C/c5ccc(N(c6ccccc6)c6ccccc6)cc5)cc4)cc3)cc2)cc1)/c1ccc(N(c2ccccc2)c2ccccc2)cc1`, for which the emission maximum is, setting by setting: (in C1CCOC1) 532 nm; (in Cc1ccccc1) 521 nm.

Consider `CCCCCCCCCCCCc1sc(CCCCCCCCCCCC)c2c3ccsc3c3sccc3c12`, for which the emission maximum (in ClC(Cl)Cl) came to 425 nm.

With `COc1ccc2c3ccc(OC)cc3c3cc4c(C)cc(=O)oc4cc3c2c1`, the emission maximum (in ClC(Cl)Cl) was found to be 475 nm.

On to `CCCCCCC(CCCCCC)N1C(=O)c2cccc3c(-c4ccc([Si](C)(C)C)cc4)ccc(c23)C1=O`, for which the emission maximum is, setting by setting: (in CCCCCC) 406.7 nm; (in CCCCCCCCCCCCCC) 407 nm; (in CCCCCCCCCCCO) 430.6 nm; (in CCCCO) 434.2 nm; (in CN(C)C=O) 432.7 nm; (in Cc1ccccc1) 416.7 nm. Where the note is “in ClC(Cl)Cl”, this compound returned an emission maximum of 425.4 nm.

With `CCOC(=O)CCCCCn1c2ccc([N+](=O)[O-])cc2c(=O)c2cc3c(cc21)c(=O)c1cc([N+](=O)[O-])ccc1n3CCCCCC(=O)OCC`, the emission maximum (in ClCCl) stood at 553 nm.

For the compound `O=C(c1ccc(-n2c3ccccc3c3cc(-n4c5ccccc5c5ccccc54)ccc32)cc1)c1ccc(-n2c3ccccc3c3cc(-n4c5ccccc5c5ccccc54)ccc32)cn1`, the emission maximum reads like this: (in Cc1ccccc1) 462 nm; under setting [1], 475 nm.

For `Clc1ccc(/C=C(\c2ccccc2)c2nc3ccccc3o2)cc1`, the emission maximum (in CO) was 420 nm.

Consider `COc1ccc(C2=C(c3ccc(OC)cc3)C(c3ccc(OC)cc3)=[N+]3C2=C(c2ccc(OC)cc2)c2c(-c4ccc(OC)cc4)c(-c4ccc(OC)cc4)c(-c4ccc(OC)cc4)n2[B-]3(F)F)cc1`, for which the emission maximum (in C1CCOC1) amounted to 640 nm.

In the case of `CN(C)c1ccc2nc(-c3ccc(/C=N/c4ccccc4)cc3)sc2c1`, the emission maximum is given as 445 nm (in C1CCCCC1), 610 nm (in CC#N), 639 nm (in CO) and 534 nm (in ClC(Cl)Cl).

Consider `COc1cc(-c2ncc(-c3ccncc3)o2)cc(OC)c1OC`, for which, under “in ClCCl”, the emission maximum is reported as 417 nm.

Where the note is “in ClCCl”, `COc1ccc(-c2c3cc4ccccc4cc3c(-c3ccc(OC)cc3)c3cc4ccccc4cc23)cc1` registered an emission maximum of 620 nm.

`C(=C\c1cnccn1)/c1ccc(N(c2ccccc2)c2ccccc2)cc1` showed an emission maximum (in C1CCOC1) of 487 nm; an emission maximum (in CC#N) of 535 nm; an emission maximum (in CCCCCCC) of 433 nm; an emission maximum (in CS(C)=O) of 537 nm; an emission maximum (in ClCCl) of 543 nm.

Under “in ClC(Cl)Cl”, `CCN(CC)c1ccc2cc(-c3cn4cc(OC)ccc4n3)c(=O)oc2c1` registered an emission maximum of 478 nm.

`CC1=C(c2ccccc2)C2=Cc3c(-c4ccccc4)c(C)c(C)n3[B-](F)(F)[N+]2=C1C` showed an emission maximum (in CC#N) of 549 nm.

As to `COc1c2ccccc2c(OC)c2c1c1cccc(OC)c1n2C`, the emission maximum is listed as 418 nm (in C1CCCCC1), 433 nm (in CC#N), 429 nm (in CO) and 431 nm (in ClCCl).

With `O=C(O)c1ccc(-c2nc(-c3ccccc3)c(-c3ccccc3)[nH]2)cc1`, the emission maximum (in CO) was found to be 414.5 nm.

`Cc1cc(C)c(-c2cc(-c3c(C)cc(C)cc3C)c3ccc4c(-c5c(C)cc(C)cc5C)cc(-c5c(C)cc(C)cc5C)c5ccc2c3c54)c(C)c1` registered an emission maximum (in ClCCl) of 411 nm.

As for `COc1ccc(-c2nc3c(c4c2-c2ccc(C#N)cc2CC4)-c2ccc(C#N)cc2CC3)cc1`, the emission maximum reads like this: (in C1CCOC1) 426 nm; (in CC#N) 430 nm; (in CCCCCC) 420 nm; (in CCOC(C)=O) 423 nm; (in CO) 426 nm; (in CS(C)=O) 435 nm. Further, the emission maximum worked out at 422 nm (in Cc1ccccc1) and 425 nm (in ClCCl).

Consider `C(=C\c1ccc(-c2nnc(-c3ccc(/C=C/c4ccc(-c5nc(-c6ccccc6)c(-c6ccccc6)[nH]5)cc4)cc3)o2)cc1)/c1ccc(-c2nc(-c3ccccc3)c(-c3ccccc3)[nH]2)cc1`, for which the emission maximum reads like this: (in C1CCOC1) 492 nm; (in CC#N) 525 nm; (in CN(C)C=O) 524 nm; (in Cc1ccccc1) 445 nm.

Regarding `CCCCC(CC)COc1cc(OCC(CC)CCCC)c2c#cc3ccc4oc5ccc(c#cc6cc(c#cc7ccc8oc9ccc(c#cc1c2)cc9c8c7)c(C(CCCC)OCCC)cc6C(CCCC)OCCC)cc5c4c3` (centres undefined), the emission maximum (in ClCCl) was found to be 377 nm.

On to `Cc1cc(C)c(N(c2ccccc2)c2ccc(S(=O)(=O)c3ccc(S(=O)(=O)c4ccc(N(c5ccccc5)c5c(C)cc(C)cc5C)cc4)cc3)cc2)c(C)c1`, for which the emission maximum is given as 450 nm (in Cc1ccccc1) and 452.12 nm (in c1cc(-n2c3ccccc3c3ccccc32)nc(-n2c3ccccc3c3ccccc32)c1).

For the compound `Cc1ccc(/C=C(\c2ccccc2)c2nc3ccccc3o2)cc1`, the emission maximum is 380 nm (in C1CCCCC1) and 385 nm (in CO).

On to `O=C(O)CCCCCn1c2ccc(Br)cc2c(=O)c2cc(Br)ccc21`, for which, under “in O”, the emission maximum amounted to 439 nm.

Consider `Cc1ccc2[nH]c(-c3ccc(-c4ccc(-c5ccc(-c6nc7cc(C)ccc7[nH]6)cc5)c(F)c4)cc3)nc2c1`, for which, under “in CN(C)C=O”, the emission maximum worked out at 423 nm.

As to `CCOC(=O)c1ccccc1-c1c2ccc(=[N+](CC)CC)cc-2oc2cc(N(CC)CC)ccc12`, the emission maximum is 581 nm (in CC#N), 571 nm (in CCO), 585 nm (in CN(C)C=O) and 581 nm (in O).

With `COc1ccc(-n2cccc2)cc1`, the emission maximum came out at 327 nm (in CC#N) and 324 nm (in CCCCCC).
